The values below come from patent publication US10954216B2, “BMP-signal-inhibiting compound” (RIKEN, priority 2016, dated 2021).

Test [1] deals with human ALK2 (Homo sapiens (Human), UniProt Q04771). As to the kind of experiment: ALK2 enzyme inhibitory effect (33P-ATP kinase assay, Reaction Biology). As to conditions: ALK2, 10 μM ATP, 20 μM casein. The format is biochemical. An excerpt: (§1) ALK Enzyme Inhibitory Effect
(§2) Evaluation conditions were described in the following web pages. http://www.reactionbiology.corrilwebapps/site/Kinase_Assay_Protocol.aspx http://www.reactionbiology.corrilwebapps/site/KinaseDetail.aspx?page=Kinases&id=1

Test [2] concerns BMP signal in MDA-231-D-BREFluc/Rluc cells. As to the kind of experiment: BMP signal inhibitory effect (AlphaScreen SureFire SMAD1 p-Ser463/465, BMP-6 stimulation). The format is cell-based. The following applies: BMP-6 stimulated MDA-231-D-BREFluc/Rluc cells, phospho-SMAD1 AlphaScreen; read-out: IC50. In short, it runs like this:
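Read-out was phospho-SMAD1 (Ser463/465) by AlphaScreen SureFire after 30 min BMP-6 stimulation at 37° C. Before stimulation, MDA-231-D-BREFluc/Rluc cells were incubated with test compound at 37° C for 2 h.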

Test [3] addresses human ALK6 (Homo sapiens (Human), UniProt O00238). As to the kind of experiment: ALK6 enzyme inhibitory effect (33P-ATP kinase assay, Reaction Biology). The format is biochemical.
Description: as §1, §2

human ALK6, sequence (O00238 14-502): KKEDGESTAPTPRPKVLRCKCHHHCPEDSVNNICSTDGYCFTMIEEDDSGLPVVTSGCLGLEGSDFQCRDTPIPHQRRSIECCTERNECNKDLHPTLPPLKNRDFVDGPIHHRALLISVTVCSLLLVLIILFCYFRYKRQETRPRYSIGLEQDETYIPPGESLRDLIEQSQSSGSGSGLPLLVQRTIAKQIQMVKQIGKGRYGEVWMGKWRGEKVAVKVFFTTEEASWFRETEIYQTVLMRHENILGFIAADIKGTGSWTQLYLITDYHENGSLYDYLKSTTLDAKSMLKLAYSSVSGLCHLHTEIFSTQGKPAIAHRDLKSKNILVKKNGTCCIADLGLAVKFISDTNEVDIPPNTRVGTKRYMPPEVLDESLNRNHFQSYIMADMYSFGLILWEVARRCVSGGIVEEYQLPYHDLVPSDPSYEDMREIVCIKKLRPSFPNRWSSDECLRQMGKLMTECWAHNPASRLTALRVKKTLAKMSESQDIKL
human ALK2, sequence (Q04771 21-509): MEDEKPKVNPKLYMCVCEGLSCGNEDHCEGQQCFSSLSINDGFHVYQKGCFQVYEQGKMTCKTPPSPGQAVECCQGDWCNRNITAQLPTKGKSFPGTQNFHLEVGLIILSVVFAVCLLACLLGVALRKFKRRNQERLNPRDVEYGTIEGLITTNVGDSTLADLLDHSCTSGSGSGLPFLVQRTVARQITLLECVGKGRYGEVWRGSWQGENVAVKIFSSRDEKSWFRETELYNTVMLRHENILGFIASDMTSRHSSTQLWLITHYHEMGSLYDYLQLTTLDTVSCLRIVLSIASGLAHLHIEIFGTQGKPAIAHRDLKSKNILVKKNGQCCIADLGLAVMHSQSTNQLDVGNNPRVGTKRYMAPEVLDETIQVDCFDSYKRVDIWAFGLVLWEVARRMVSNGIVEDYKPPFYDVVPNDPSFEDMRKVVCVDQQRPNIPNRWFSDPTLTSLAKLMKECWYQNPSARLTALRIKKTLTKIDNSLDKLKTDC

As a reminder, the IC50 is the point on the concentration scale where inhibition reaches its midpoint. In the case of `CCn1cc(-c2ccc(Nc3nccc(-c4cn(CC)nc4-c4cccnc4)n3)cc2)cn1` [Example 27, N-(4-(1-ethyl-1H-pyrazol-4-yl)phenyl)-4-(1-ethyl-3-(pyridin-3-yl)-1H-pyrazol-4-yl)pyrimidin-2-amine], the IC50 worked out at 17.7 nM in test [1] and 58.5 nM in test [2].

The inhibition is the relative decrease from the control value, in per cent. Regarding `c1cncc(-c2n[nH]cc2-c2ccnc(Nc3ccc(OCCN4CCOCC4)cc3)n2)c1` [Example 25, N-(4-(2-morpholinoethoxy)phenyl)-4-(3-(pyridin-3-yl)-1H-pyrazol-4-yl)pyrimidin-2-amine], the inhibition at 0.37 µM in test [3] (ALK6, test compound 370 nM (asterisk footnote), read-out: inhibition rate at 370 nM) was determined as 47.7%. Moreover, the half-maximal inhibitory concentration (IC50) in test [2] stood at 48.5 nM.

Regarding `O=C(c1ccc(Nc2nccc(-c3cn(Cc4ccccc4)nc3-c3cccnc3)n2)cc1)N1CCNCC1` [Example 138, (4-((4-(1-Benzyl-3-(pyridin-3-yl)-1H-pyrazol-4-yl)pyrimidin-2-yl)amino)phenyl) (piperazin-1-yl)methanone], the inhibition at 0.3 µM in test [3] (ALK6, test compound 300 nM, read-out: Inhibition rate at 300 nM) was determined as 83.8%. The half-inhibitory concentration (IC50) in test [2] is 22.4 nM.

Turning to `c1cncc(-c2nn(C3COC3)cc2-c2ccnc(Nc3ccc(N4CCN(CC5CC5)CC4)cc3)n2)c1` [Example 103, N-(4-(4-(Cyclopropylmethyl)piperazin-1-yl)phenyl)-4-(1-(oxetan-3-yl)-3-(pyridin-3-yl)-1H-pyrazol-4-yl)pyrimidin-2-amine], the half-inhibitory concentration (IC50) in test [2] came to 10.4 nM.

Consider `CCn1cc(-c2ccnc(Nc3ccc(N4CCN(CC5CCCN5C)CC4)cc3)n2)c(-c2cccnc2)n1` (stereo not drawn) [Example 78, 4-(1-Ethyl-3-(pyridin-3-yl)-1H-pyrazol-4-yl)-N-(4-(4-((1-methylpyrrolidin-2-yl)methyl)piperazin-1-yl)phenyl)pyrimidin-2-amine], for which the IC50 in test [2] is 12.7 nM.

For `CCn1cc(-c2ccnc(Nc3ccc4c(c3)CN(C3COC3)C4)n2)c(-c2cccnc2)n1` [Example 9, N-(4-(1-Ethyl-3-(pyridin-3-yl)-1H-pyrazol-4-yl)pyrimidin-2-yl)-2-(oxetan-3-yl)isoindolin-5-amine], the half-inhibitory concentration (IC50) in test [2] is 23.5 nM.

Regarding `CCn1cc(-c2ccnc(Nc3ccc4c(c3)NCCC4)n2)c(-c2cccnc2)n1` [Example 170, N-(4-(1-Ethyl-3-(pyridin-3-yl)-1H-pyrazol-4-yl)pyrimidin-2-yl)-1,2,3,4-tetrahydroquinolin-7-amine], in test [2], the IC50 was 22.7 nM.

Turning to `CN1CCc2cc(Nc3nccc(-c4cn(C5COC5)nc4-c4cccnc4)n3)ccc2C1` [Example 8, 2-methyl-N-(4-(1-(oxetan-3-yl)-3-(pyridin-3-yl)-1H-pyrazol-4-yl)pyrimidin-2-yl)-1,2,3,4-tetrahydroisoquinolin-6-amine], the IC50 in test [2] was found to be 6.8 nM.

On to `CCn1cc(-c2ccnc(Nc3ccc(N4CCCN(CCOC)CC4)cc3)n2)c(-c2cccnc2)n1` [Example 94, 4-(1-Ethyl-3-(pyridin-3-yl)-1H-pyrazol-4-yl)-N-(4-(4-(2-methoxyethyl)-1,4-diazepan-1-yl)phenyl)pyrimidin-2-amine], for which the 50% inhibitory concentration (IC50) in test [2] is 24.3 nM.

Regarding `CCn1cc(-c2ccnc(Nc3ccc(-c4nnc(C)s4)cc3)n2)c(-c2cccnc2)n1` [Example 56, 4-(1-Ethyl-3-(pyridin-3-yl)-1H-pyrazol-4-yl)-N-(4-(5-methyl-1,3,4-thiadiazol-2-yl)phenyl)pyrimidin-2-amine], in test [2], the concentration for half-maximal inhibition (IC50) turned out to be 17.6 nM.

As to `CCn1cc(-c2ccnc(Nc3ccc(N4CCN(CC5CC(C)(C)O5)CC4)cc3)n2)c(-c2cccnc2)n1` (stereo not drawn) [Example 96, N-(4-(4-((4,4-dimethyloxetan-2-yl)methyl)piperazin-1-yl)phenyl)-4-(1-ethyl-3-(pyridin-3-yl)-1H-pyrazol-4-yl)pyrimidin-2-amine], the half-maximal inhibitory concentration (IC50) in test [2] stood at 20.9 nM.

Regarding `CCn1cc(-c2ccnc(Nc3ccc4c(c3)CN(CCOC)C4)n2)c(-c2cccnc2)n1` [Example 61, N-(4-(1-ethyl-3-(pyridin-3-yl)-1H-pyrazol-4-yl)pyrimidin-2-yl)-2-(2-methoxyethyl)isoindolin-5-amine], in test [2], the concentration for half-maximal inhibition (IC50) worked out at 7 nM.
